Experiments:
PD-L1 mRNA [1] = experiment: Activity evaluation A in human PD-L1 model mice (liver PD-L1 mRNA, qPCR); assay type: in vivo; conditions: liver tissue, 10 mg/kg subcutaneous single dose, 14 days after treatment, vs PBS group
Protocol: (§1) Male human PD-L1 mice (purchased from Shanghai Model Organisms Center, Inc.) aged 6-8 weeks were randomized by weight, with 3 mice in each group. The groups were designated as a PBS group and various sample groups (dsRNA ligand conjugate of the present application).
(§2) Each sample group (dsRNA ligand conjugate of the present application) received a 1 mg/mL solution prepared in 1× PBS (pH 7.4).
Each mouse in the PBS group was subcutaneously injected with 10 mL/kg body weight of 1× PBS (pH 7.4), and each mouse in the sample groups (dsRNA ligand conjugate of the present application) was subcutaneously injected with the corresponding solution prepared as described above. The administration volume for each animal was 10 mL/kg body weight, and the administration dose was 10 mg/kg body weight. The day of the first dose was designated as day 0. All mice were sacrificed 14 days after the treatment, and the liver was collected and preserved in 1.5 mL sterile EP tubes containing 1 mL of animal tissue RNA stabilizing solution (Shanghai Beyotime Biotech Inc., Cat. No. R0118). After being preserved in a refrigerator at 4 °C for 24 h, the liver was transferred to -80 °C for storage. […]
For each reverse transcription reaction system, the cDNA-containing solution described above was taken as the qPCR template, and 20 µL of the qPCR reaction system was prepared using the reagent provided by the ChamQ SYBRqPCR Master Mix kit (Vazyme Biotech Co., Ltd., Cat. No. Q311). […] The qPCR reaction system was placed on a LightCycler 480 fluorescent quantitative PCR system and amplified using the three-step method. […] The real-time fluorescent quantitative PCR system separately acquired the dissolution curves of the target gene PD-L1 and the internal reference gene GAPDH in the PCR amplification products to give the Ct values of the target gene PD-L1 and the internal reference gene GAPDH. […]

PD-L1 mRNA [2] = experiment: Activity evaluation B in human PD-L1 model mice (liver PD-L1 mRNA, qPCR); assay type: in vivo; conditions: liver tissue, 10 mg/kg subcutaneous; for PD-L1 expression inhibition rate (%), Day 14 after treatment, Avg: day 14, vs PBS group; for PD-L1 expression inhibition rate (%), Day 28 after treatment, Avg: day 28, vs PBS group
Protocol: as §1, §2
Each mouse in the PBS group was subcutaneously injected with 10 mL/kg body weight of 1× PBS (pH 7.4), and each mouse in the sample groups (dsRNA ligand conjugate of the present application) was subcutaneously injected with the corresponding solution prepared as described above. The administration volume for each animal was 10 mL/kg body weight, and the administration dose was 10 mg/kg body weight. The day of the first dose was designated as day 0. The liver was collected on days 14 and 28 after the treatment and preserved in 1.5 mL sterile EP tubes containing 1 mL of animal tissue RNA stabilizing solution (Shanghai Beyotime Biotech Inc., Cat. No. R0118). After being preserved in a refrigerator at 4 °C for 24 h, the liver was transferred to -80 °C for storage. Then, the liver tissue of each mouse was homogenized using a tissue homogenizer, and the total RNA of the liver tissue of each mouse was separately extracted using the TaKaRa MiniBEST Universal RNA Extraction Kit (TAKARA, Cat. No. 9767) according to the procedures for total RNA extraction in the instructions.
The procedures of reverse transcription to synthesize cDNA and fluorescence quantitative PCR, the primers, and the calculation of inhibition rate are shown in Experimental Example 3.

| Substance | PD-L1 expression inhibition rate (%), Avg (PD-L1 mRNA [1]) [%] | PD-L1 expression inhibition rate (%), Day 14 after treatment, Avg (PD-L1 mRNA [2]) [%] | PD-L1 expression inhibition rate (%), Day 28 after treatment, Avg (PD-L1 mRNA [2]) [%] |
| --- | --- | --- | --- |
| M01L01: dsRNA ligand conjugate; modified sense SEQ ID NO 31 with L01 ligand (GalNAc), antisense SEQ ID NO 32 (sense AGCAATATGACAATTGAATGA; antisense TCATTCAATTGTCATATTGCTAC; 2'-O-methyl and 2'-fluoro modified, full pattern not given here, GalNAc L01 on sense) | 59.3 | – | – |
| M02L01: dsRNA ligand conjugate; modified sense SEQ ID NO 33 with L01 ligand (GalNAc), antisense SEQ ID NO 34 (sense ATTTACTGTCACGGTTCCCAA; antisense TTGGGAACCGTGACAGTAATAGC; 2'-O-methyl and 2'-fluoro modified, full pattern not given here, GalNAc L01 on sense) | 67.1 | – | – |
| M03L01: dsRNA ligand conjugate; modified sense SEQ ID NO 35 with L01 ligand (GalNAc), antisense SEQ ID NO 36 (sense CTATTTATTTTGAGTCTGT; antisense ACAGACTCAAAATAAATAGGA; 2'-O-methyl and 2'-fluoro modified, full pattern not given here, GalNAc L01 on sense) | 78.2 | – | – |
| M07L01: dsRNA ligand conjugate; modified sense SEQ ID NO 43 with L01 ligand (GalNAc), antisense SEQ ID NO 44 (sense AATGAAAGGACTCACTTGGTA; antisense TACCAAGTGAGTCCTTTCATTTG; 2'-O-methyl and 2'-fluoro modified, full pattern not given here, GalNAc L01 on sense) | – | 49.0 | – |
| M08L01: dsRNA ligand conjugate; modified sense SEQ ID NO 45 with L01 ligand (GalNAc), antisense SEQ ID NO 46 (sense GCTGCATGATCAGCTATGGTA; antisense TACCATAGCTGATCATGCAGCGG; 2'-O-methyl and 2'-fluoro modified, full pattern not given here, GalNAc L01 on sense) | – | 26.7 | – |
| M10L01: dsRNA ligand conjugate; modified sense SEQ ID NO 49 with L01 ligand (GalNAc), antisense SEQ ID NO 50 (sense ATTGGTCATCCCAGAACTACA; antisense TGTAGTTCTGGGATGACCAATTC; 2'-O-methyl and 2'-fluoro modified, full pattern not given here, GalNAc L01 on sense) | – | 64.6 | 47.0 |
| M11L01: dsRNA ligand conjugate; modified sense SEQ ID NO 51 with L01 ligand (GalNAc), antisense SEQ ID NO 52 (sense TATTTATTTTGAGTCTGTG; antisense CACAGACTCAAAATAAATAGG; 2'-O-methyl and 2'-fluoro modified, full pattern not given here, GalNAc L01 on sense) | – | 66.7 | 39.2 |
| M12L01: dsRNA ligand conjugate; modified sense SEQ ID NO 55 with L01 ligand (GalNAc), antisense SEQ ID NO 56 (sense ATTTACTGTCACGGTTCCCAA; antisense TTGGGAACCGTGACAGTAAATGC; 2'-O-methyl and 2'-fluoro modified, full pattern not given here, GalNAc L01 on sense) | – | 78.6 | 50 |

Reference: patent EP4756027A1, “DOUBLE-STRANDED RIBONUCLEIC ACID TARGETING PD-L1” (Chia Tai Tianqing Pharmaceutical Group Co., Ltd., priority 2023, dated 2025)
